{"source": "patent US9186296B2", "about": "“Containers for compositions comprising meloxicam” (Boehringer Ingelheim Vetmedica GmbH, priority 2009, dated 2015)", "assay": "long-term stability programme according to VICH guideline 3 (storage in bottles of different materials)", "format": "physicochemical", "conditions": "PP bottles compared with bottles made of HDPE or LDPE; FIG. 4, 5, 6", "procedure": "The preferred pharmaceutical composition filled into containers made of the different types of packaging has been subject to a long-term stability programme according to the conditions as described in the VICH guideline 3. The conditions used for storage were 25° C./60% r.h. (r.h.=relative humidity), 30° C./70% r.h., and 40° C. /75% r.h.\nThe stability studies of a 0.5 mg/ml suspension were carried out with 3 ml and 4 ml of the suspension being filled into 5 ml HDPE bottles. […] This has not been observed before for any of the suspensions (1.5 mg/ml or 0.5 mg/ml) or the different fill volumes. The shelf-life of the 1.5 mg/ml suspension with a 10 ml fill (in a 25 ml bottle) is for example at least 18 months. An acceptable shelf-life for commercial use of the product with a volume size for the treatment of cats for a few days (up to five days) cannot be established by using HDPE as the container material.\nThus, polypropylene is a suitable material for holding small volumes of oral suspensions comprising meloxicam and sodium benzoate as preservative. The suitability of PP is further shown by comparison with the unsuitable negative reference containers made of PET and PC, see FIGS. 1, 3, and 4.", "data": [{"molecule": "O=C([O-])c1ccccc1.[Na+]", "note": "[sodium benzoate]", "values": [{"measurement": "decrease of sodium benzoate content over 18 months or at least 18 months", "result": "significantly lower in PP bottles than in bottles made of either HDPE or LDPE"}]}]}
